Measured values reported in patent publication US20100022491A1, “4-HYDROXY-2-OXO-2,3-DIHYDRO-1,3-BENZOTHIAZOL-7YL COMPOUNDS FOR MODULATION OF B2-ADRENORECEPTOR ACTIVITY” (ASTRAZENECA AB, priority 2006, published 2010).
Where a name gives a salt, the structure may show the parent alone.

Legend:
[1] = target: T1, recombinant human adrenergic beta 1 receptors (Homo sapiens, UniProt P08588); experiment: Adrenergic β1 selectivity binding assay ([125I]-Iodocyanopindolol); details: inhibition of [125I]-Iodocyanopindolol (0.036 nM) binding; for IC50: read-out: β1 bind p IC50 (converted)
T1 construct: purchased Euroscreen
T1 sequence (P08588 whole entry): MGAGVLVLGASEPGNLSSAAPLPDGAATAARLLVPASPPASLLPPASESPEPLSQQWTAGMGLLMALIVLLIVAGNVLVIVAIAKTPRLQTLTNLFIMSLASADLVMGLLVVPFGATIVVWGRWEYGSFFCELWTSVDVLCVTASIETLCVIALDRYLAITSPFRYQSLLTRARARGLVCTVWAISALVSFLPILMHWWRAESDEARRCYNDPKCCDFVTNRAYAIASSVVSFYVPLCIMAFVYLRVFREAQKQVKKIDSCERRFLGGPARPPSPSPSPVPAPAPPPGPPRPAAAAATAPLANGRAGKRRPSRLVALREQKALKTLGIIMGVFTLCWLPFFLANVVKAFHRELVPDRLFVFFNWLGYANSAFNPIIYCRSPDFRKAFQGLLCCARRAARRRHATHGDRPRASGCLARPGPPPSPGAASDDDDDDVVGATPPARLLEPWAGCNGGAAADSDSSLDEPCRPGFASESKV
Summary of the method: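 Displacement of [^125I]-Iodocyanopindolol (0.036 nM final) from human β1 receptor membranes, 2 hours at room temperature, pH 7.4 HEPES/EDTA/NaCl buffer. After filtration, scintillation counting; NSB set with 10 μM propranolol and subtracted. Four-parameter logistic fitting gave pIC50.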

[2] = target: T2, recombinant human Dopamine Subtype D2s receptors (Homo sapiens, UniProt P14416); experiment: Dopamine D2 selectivity binding assay ([3H]-spiperone); details: inhibition of [3H]-spiperone (0.16 nM) binding; for IC50: read-out: D2 bind pIC50 (converted)
T2 construct: purchased Perkin Elmer
T2 sequence (P14416 1-414 isoform P14416-2): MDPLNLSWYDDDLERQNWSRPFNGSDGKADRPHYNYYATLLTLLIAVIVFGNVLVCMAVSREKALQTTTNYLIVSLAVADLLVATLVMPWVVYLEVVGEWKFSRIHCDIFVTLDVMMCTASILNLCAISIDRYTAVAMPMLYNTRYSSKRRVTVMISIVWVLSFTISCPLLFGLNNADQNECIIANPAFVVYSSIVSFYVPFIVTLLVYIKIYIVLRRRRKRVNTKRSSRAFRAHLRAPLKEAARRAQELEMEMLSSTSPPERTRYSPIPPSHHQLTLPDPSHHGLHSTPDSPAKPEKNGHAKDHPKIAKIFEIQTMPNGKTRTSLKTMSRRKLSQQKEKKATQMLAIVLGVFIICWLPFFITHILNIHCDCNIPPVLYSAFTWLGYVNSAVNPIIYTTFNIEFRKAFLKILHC
Summary of the method: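 Displacement of [3H]-spiperone (0.16 nM final) from human D2s receptor membranes in pH 7.4 HEPES buffer over 2 h at room temperature, then filtration and scintillation counting. Specific binding taken as vehicle minus 10 μM haloperidol wells. Potency given as pIC50 from a four-parameter logistic curve.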

Adrenergic β2 = target: T3, Adrenergic β2 (Homo sapiens, UniProt P07550); experiment: Adrenergic β2 mediated cAMP production in H292 cells; type: cell-based; details: for EC50: read-out: β2 pEC50 (converted); for β2 Int Act: Intrinsic Activity as a fraction relative to the maximum activity determined for formoterol
T3 construct: Adherent H292 cells were removed from tissue culture flasks; endogenous in cells; host or cells: H292 cells
T3 sequence (P07550 whole entry): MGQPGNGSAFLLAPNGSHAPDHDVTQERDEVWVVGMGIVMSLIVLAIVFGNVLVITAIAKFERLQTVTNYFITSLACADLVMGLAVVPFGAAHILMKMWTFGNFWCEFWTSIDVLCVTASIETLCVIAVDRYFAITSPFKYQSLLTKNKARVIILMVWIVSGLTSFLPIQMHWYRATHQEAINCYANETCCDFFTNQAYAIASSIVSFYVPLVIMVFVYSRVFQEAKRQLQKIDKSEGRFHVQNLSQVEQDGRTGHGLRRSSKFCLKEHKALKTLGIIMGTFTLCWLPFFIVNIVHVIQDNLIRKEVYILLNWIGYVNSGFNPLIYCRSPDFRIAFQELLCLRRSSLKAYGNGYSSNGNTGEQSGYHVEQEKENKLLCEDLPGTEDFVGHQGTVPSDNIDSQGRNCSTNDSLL
Summary of the method: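 cAMP accumulation in adherent H292 cells, measured by AlphaScreen and calibrated with cAMP standards. Compounds incubated 60 min at room temperature after 10 min rolipram (final 300 μM; vehicle 1.6% DMSO). pEC50 and intrinsic activity, as a fraction of formoterol's maximum, from four-parameter logistic fit.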

[3] = H292 cells, cAMP by AlphaScreen, 60 minutes at room temperature, rolipram 300 μM

IC50 [1] [µM] | IC50 [2] [µM] | EC50 (Adrenergic β2; [3]) [µM] | β2 Int Act (Adrenergic β2) | Compound | β1 bind p IC50 [1] | D2 bind pIC50 [2] | β2 pEC50 (Adrenergic β2; [3])
5.01 | 0.251 | 0.00316 | 1.04 | O=C(CCNCCc1ccccc1)N(CCNCCc1ccc(O)c2[nH]c(=O)sc12)C1CCCC1 [Example 2, N-Cyclopentyl-N-(2-{[2-(4-hydroxy-2-oxo-2,3-dihydro-1,3-benzothiazol-7-yl)ethyl]amino}ethyl)-N^3-(2-phenylethyl)-β-alaninamide bis-trifluoroacetic acid salt] |  |  | 
0.398 | 0.398 | 0.00631 | 0.87 | O=C(CCNCCc1ccccc1)N(CCNCCc1ccc(O)c2[nH]c(=O)sc12)C1CCSCC1 [Example 62, N-(2-{[2-(4-Hydroxy-2-oxo-2,3-dihydro-1,3-benzothiazol-7-yl)ethyl]amino}ethyl)-N^3-(2-phenylethyl)-N^1-(tetrahydro-2H-thiopyran-4-yl)-β-alaninamide bis-trifluoroacetic acid salt] |  |  | 
5.01 | 1 | 0.00794 | 0.83 | O=C(CCNCCc1ccc(Cl)cc1)N(CCNCCc1ccc(O)c2[nH]c(=O)sc12)C1CCOCC1 [Example 26, N^3-[2-(4-Chlorophenyl)ethyl]-N-(2-{[2-(4-hydroxy-2-oxo-2,3-dihydro-1,3-benzothiazol-7-yl)ethyl]amino}ethyl)-N-(tetrahydro-2H-pyran-4-yl)-β-alaninamide bis-trifluoroacetic acid salt] |  |  | 
5.01 | 0.398 | 0.01 | 0.73 | CC(C)(C)CN(CCNCCc1ccc(O)c2[nH]c(=O)sc12)C(=O)CCNCCc1ccc(Cl)cc1 [Example 8, N^3-[2-(4-Chlorophenyl)ethyl]-N-(2,2-dimethylpropyl)-N-(2-{[2-(4-hydroxy-2-oxo-2,3-dihydro-1,3-benzothiazol-7-yl)ethyl]amino}ethyl)-β-alaninamide bis-trifluoroacetic acid salt] |  |  | 
7.94 | 0.398 | 0.0794 | 0.67 | CC(C)(CNCCC(=O)N(CCNCCc1ccc(O)c2[nH]c(=O)sc12)C1CCCC1)c1ccccc1 [Example 32, N-cyclopentyl-N-(2-{[2-(4-hydroxy-2-oxo-2,3-dihydro-1,3-benzothiazol-7-yl)ethyl]amino}ethyl)-N^3-(2-methyl-2-phenylpropyl)-β-alaninamide bis-trifluoroacetic acid salt] |  |  | 
1.26 | 0.0316 | 0.00631 | 0.81 | O=C(NCc1ccccc1)c1ccc(CCNCCC(=O)N(CCNCCc2ccc(O)c3[nH]c(=O)sc23)C2CCCCCC2)cc1 [Example 100, N-Benzyl-4-[2-({3-[cycloheptyl(2-{[2-(4-hydroxy-2-oxo-2,3-dihydro-1,3-benzothiazol-7-yl)ethyl]amino}ethyl)amino]-3-oxopropyl}amino)ethyl]benzamide bis-trifluoroacetic acid salt] |  |  | 
5.01 | 2.51 | 0.00794 | 1.05 | Cc1cccc(CCNCCC(=O)N(CCNCCc2ccc(O)c3[nH]c(=O)sc23)C2CCOCC2)c1 [Example 25, N-(2-{[2-(4-Hydroxy-2-oxo-2,3-dihydro-1,3-benzothiazol-7-yl)ethyl]amino}ethyl)-N^3-[2-(3-methylphenyl)ethyl]-N-(tetrahydro-2H-pyran-4-yl)-β-alaninamide bis-trifluoroacetic acid salt] |  |  | 
 |  |  |  | O=C(CCNCCc1cc(F)cc(F)c1)N(CCNCCc1ccc(O)c2[nH]c(=O)sc12)C1CCCCC1 [Example 92, N-Cyclohexyl-N^3-[2-(3,5-difluorophenyl)ethyl]-N-(2-{[2-(4-hydroxy-2-oxo-2,3-dihydro-1,3-benzothiazol-7-yl)ethyl]amino}ethyl)-β-alaninamide dihydrobromide salt] | 5.4 | 6.5 | 8.5
0.794 | 0.0631 | 0.00501 | 0.81 | CC(CN(C(=O)CCNCCc1cccc(F)c1)C1CCCCCC1)NCCc1ccc(O)c2[nH]c(=O)sc12 (stereo not drawn) [Example 104, N-Cycloheptyl-N^3-[2-(3-fluorophenyl)ethyl]-N-(2-{[2-(4-hydroxy-2-oxo-2,3-dihydro-1,3-benzothiazol-7-yl)ethyl]amino}propyl)-β-alaninamide bis-trifluoroacetic acid salt] |  |  | 
5.01 | 0.158 | 0.00398 | 0.84 | O=C(CCNCCc1cc(F)cc(F)c1)N(CCNCCc1ccc(O)c2[nH]c(=O)sc12)C1CCCCCC1 [Example 58, N^1-Cycloheptyl-N^3-[2-(3,5-difluorophenyl)ethyl]-N^1-(2-{[2-(4-hydroxy-2-oxo-2,3-dihydro-1,3-benzothiazol-7-yl)ethyl]amino}ethyl)-β-alaninamide bis-trifluoroacetic acid salt] |  |  | 
7.94 | 0.501 | 0.0158 | 0.84 | C[C@H](CNCCC(=O)N(CCNCCc1ccc(O)c2[nH]c(=O)sc12)CC(C)(C)C)c1ccccc1 [Example 11, N-(2,2-Dimethylpropyl)-N-(2-{[2-(4-hydroxy-2-oxo-2,3-dihydro-1,3-benzothiazol-7-yl)ethyl]amino}ethyl)-N^3-[(2S)-2-phenylpropyl]-β-alaninamide bis-trifluoroacetic acid salt] |  |  | 
3.16 | 0.158 | 0.00251 | 0.84 | O=C(CCNCCc1cc(F)ccc1F)N(CCNCCc1ccc(O)c2[nH]c(=O)sc12)C1CCCCC1 [Example 79, N^1-Cyclohexyl-N^3-[2-(2,5-difluorophenyl)ethyl]-N^1-(2-{[2-(4-hydroxy-2-oxo-2,3-dihydro-1,3-benzothiazol-7-yl)ethyl]amino}ethyl)-β-alaninamide bis-trifluoroacetic acid salt] |  |  | 
6.31 | 0.158 | 0.158 | 0.54 | O=C(CCNCCc1nc2ccccc2[nH]1)N(CCNCCc1ccc(O)c2[nH]c(=O)sc12)C1CCCCC1 [Example 77, N^3-[2-(1H-Benzimidazol-2-yl)ethyl]-N^1-cyclohexyl-N^1-(2-{[2-(4-hydroxy-2-oxo-2,3-dihydro-1,3-benzothiazol-7-yl)ethyl]amino}ethyl)-β-alaninamide tris-trifluoroacetic acid salt] |  |  | 
3.16 | 0.0316 | 0.00501 | 0.86 | O=C(CCNCCc1cccc(F)c1F)N(CCNCCc1ccc(O)c2[nH]c(=O)sc12)C1CCCCCC1 [Example 56, N^1-Cycloheptyl-N^3-[2-(2,3-difluorophenyl)ethyl]-N^1-(2-{[2-(4-hydroxy-2-oxo-2,3-dihydro-1,3-benzothiazol-7-yl)ethyl]amino}ethyl)-β-alaninamide bis-trifluoroacetic acid salt] |  |  | 
7.94 | 0.631 | 0.00398 | 0.91 | O=C(CCNCCc1ccc(F)cc1)N(CCNCCc1ccc(O)c2[nH]c(=O)sc12)C1CCCCC1 [Example 16, N-Cyclohexyl-N^3-[2-(4-fluorophenyl)ethyl]-N-(2-{[2-(4-hydroxy-2-oxo-2,3-dihydro-1,3-benzothiazol-7-yl)ethyl]amino}ethyl)-β-alaninamide bis-trifluoroacetic acid salt] |  |  | 

Compound | IC50 [1] [µM] | IC50 [2] [µM] | EC50 (Adrenergic β2; [3]) [µM] | β2 Int Act (Adrenergic β2) | β1 bind p IC50 [1] | D2 bind pIC50 [2] | β2 pEC50 (Adrenergic β2; [3])
O=C(CCNCCc1ccccc1)N(CCNCCc1ccc(O)c2[nH]c(=O)sc12)C1CCCCCC1 [Example 23, N-Cycloheptyl-N-(2-{[2-(4-hydroxy-2-oxo-2,3-dihydro-1,3-benzothiazol-7-yl)ethyl]amino}ethyl)-N^3-(2-phenylethyl)-β-alaninamide bis-trifluoroacetic acid salt] | 3.98 | 0.251 | 0.001 | 0.85 |  |  | 
O=C(CCNCCc1cc(F)cc(F)c1)N(CCNCCc1ccc(O)c2[nH]c(=O)sc12)C1CCCCC1 [Example 78, N^1-Cyclohexyl-N^3-[2-(3,5-difluorophenyl)ethyl]-N^1-(2-{[2-(4-hydroxy-2-oxo-2,3-dihydro-1,3-benzothiazol-7-yl)ethyl]amino}ethyl)-β-alaninamide bis-trifluoroacetic acid salt] | 3.98 | 0.316 | 0.00316 | 0.91 |  |  | 
O=C(CCNCCc1cccc(F)c1)N(CCNCCc1ccc(O)c2[nH]c(=O)sc12)C1CCCCC1 [Example 96, N-Cyclohexyl-N^3-[2-(3-fluorophenyl)ethyl]-N-(2-{[2-(4-hydroxy-2-oxo-2,3-dihydro-1,3-benzothiazol-7-yl)ethyl]amino}ethyl)-β-alaninamide dihydrobromide salt] | 6.31 | 0.398 | 0.00251 | 0.85 |  |  | 
